Patent US10280170B2, “Substituted 4,5,6,7-tetrahydro-pyrazolo[1,5-a]pyrazine derivatives and 5,6,7,8-tetrahydro-4H-pyrazolo[1,5-a][1,4]diazepine derivatives as Ros1 inhibitors” (Janssen Pharmaceutica NV, priority 2014, dated 2019)
Where “and” joins values, the source holds several entries; their conditions need not be identical. Equal entries are not always repeated.

Experiments:
[1] = test system: Ba/F3 tumors containing G2032R mutant Ros1; experiment: Efficacy study in mice bearing Ba/F3-Ros1 tumors, G2032R mutant Ros1; assay type: in vivo, NMRI nude mice; settings: oral gavage, 10 days
Procedure: (§1) Efficacy Studies in Mice Bearing Ba/F3-Ros1 Tumors
(§2) Approximately 2×10^6 Ba/F3 cells containing either wild-type, L2026M or G2032R mutant Ros1 were inoculated into the inguinal region of NMRI nude mice. When the resulting tumors reached a size of 250 to 350 mm^3, mice were randomly assigned to the different treatment groups (8 to 12 mice per group). Compounds formulated in 20% cyclodextrin were administered to the mice by oral gavage at various doses for 10-days once (QD) or twice (BID) a day. Tumor sizes were determined by caliper measurement on day 1 prior to treatment and then twice weekly for the duration of the study using the commonly following formula: tumor volume (mm^3)=(a×b^2/2); where ‘a’ represents the length, and ‘b’ the width of the tumor. Treatment/control (T/C) ratios were calculated at the end of the study based on the change in final relative tumor volumes.

[2] = target: Ba/F3 cells containing Ros1 with G2032R mutation (Homo sapiens, UniProt P08922, G2032R, cells depend on it, form not given); experiment: Ba/F3-Ros1 cell proliferation assay, G2032R crizotinib-resistance mutant; assay type: cell-based, murine; settings: without IL-3
In short: (§3)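 Ba/F3 cells expressing wild-type, L2026M or G2032R Ros1, 20000 cells/well in phenol red-free RPMI-1640 with 10% FBS, 2 mM L-glutamine, exposed to compound for 24 h at 37 °C, 5% CO2. Viability read by Alamar Blue (resazurin) fluorescence, ex 540/em 590 nm, after 4 h further incubation.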

[3] = test system: Ba/F3 cells containing Ros1 wild-type protein + IL-3; experiment: Ba/F3-Ros1 cell proliferation counter-screen, wild-type protein in the presence of 10 ng/ml murine IL-3; assay type: cell-based; settings: Mus musculus, BaF3, 24 h, read-out: BaF3-ROS1 + IL3 pIC50 (converted)
In short: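 IL-3 rescue counter-screen: WT Ros1 Ba/F3, 10 ng/ml mIL-3, 24 h compound exposure, 37 °C/5% CO2; Alamar Blue added 4 h, RFU ex540/em590.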

[4] = target: Ba/F3 cells containing Ros1 with a mutation at the gatekeeper residue (L2026M) (Homo sapiens, UniProt P08922, L2026M, cells depend on it, form not given); experiment: Ba/F3-Ros1 cell proliferation assay, L2026M gatekeeper mutant; assay type: cell-based, murine; settings: without IL-3
In short: as §3

[5] = test system: Ba/F3 tumors containing wild-type Ros1; experiment: Efficacy study in mice bearing Ba/F3-Ros1 tumors, wild-type Ros1; assay type: in vivo, NMRI nude mice; settings: oral gavage, 10 days
Procedure: as §1, §2

Sequence of Ba/F3 cells containing Ros1 with G2032R mutation (P08922 whole entry G2032R, form open): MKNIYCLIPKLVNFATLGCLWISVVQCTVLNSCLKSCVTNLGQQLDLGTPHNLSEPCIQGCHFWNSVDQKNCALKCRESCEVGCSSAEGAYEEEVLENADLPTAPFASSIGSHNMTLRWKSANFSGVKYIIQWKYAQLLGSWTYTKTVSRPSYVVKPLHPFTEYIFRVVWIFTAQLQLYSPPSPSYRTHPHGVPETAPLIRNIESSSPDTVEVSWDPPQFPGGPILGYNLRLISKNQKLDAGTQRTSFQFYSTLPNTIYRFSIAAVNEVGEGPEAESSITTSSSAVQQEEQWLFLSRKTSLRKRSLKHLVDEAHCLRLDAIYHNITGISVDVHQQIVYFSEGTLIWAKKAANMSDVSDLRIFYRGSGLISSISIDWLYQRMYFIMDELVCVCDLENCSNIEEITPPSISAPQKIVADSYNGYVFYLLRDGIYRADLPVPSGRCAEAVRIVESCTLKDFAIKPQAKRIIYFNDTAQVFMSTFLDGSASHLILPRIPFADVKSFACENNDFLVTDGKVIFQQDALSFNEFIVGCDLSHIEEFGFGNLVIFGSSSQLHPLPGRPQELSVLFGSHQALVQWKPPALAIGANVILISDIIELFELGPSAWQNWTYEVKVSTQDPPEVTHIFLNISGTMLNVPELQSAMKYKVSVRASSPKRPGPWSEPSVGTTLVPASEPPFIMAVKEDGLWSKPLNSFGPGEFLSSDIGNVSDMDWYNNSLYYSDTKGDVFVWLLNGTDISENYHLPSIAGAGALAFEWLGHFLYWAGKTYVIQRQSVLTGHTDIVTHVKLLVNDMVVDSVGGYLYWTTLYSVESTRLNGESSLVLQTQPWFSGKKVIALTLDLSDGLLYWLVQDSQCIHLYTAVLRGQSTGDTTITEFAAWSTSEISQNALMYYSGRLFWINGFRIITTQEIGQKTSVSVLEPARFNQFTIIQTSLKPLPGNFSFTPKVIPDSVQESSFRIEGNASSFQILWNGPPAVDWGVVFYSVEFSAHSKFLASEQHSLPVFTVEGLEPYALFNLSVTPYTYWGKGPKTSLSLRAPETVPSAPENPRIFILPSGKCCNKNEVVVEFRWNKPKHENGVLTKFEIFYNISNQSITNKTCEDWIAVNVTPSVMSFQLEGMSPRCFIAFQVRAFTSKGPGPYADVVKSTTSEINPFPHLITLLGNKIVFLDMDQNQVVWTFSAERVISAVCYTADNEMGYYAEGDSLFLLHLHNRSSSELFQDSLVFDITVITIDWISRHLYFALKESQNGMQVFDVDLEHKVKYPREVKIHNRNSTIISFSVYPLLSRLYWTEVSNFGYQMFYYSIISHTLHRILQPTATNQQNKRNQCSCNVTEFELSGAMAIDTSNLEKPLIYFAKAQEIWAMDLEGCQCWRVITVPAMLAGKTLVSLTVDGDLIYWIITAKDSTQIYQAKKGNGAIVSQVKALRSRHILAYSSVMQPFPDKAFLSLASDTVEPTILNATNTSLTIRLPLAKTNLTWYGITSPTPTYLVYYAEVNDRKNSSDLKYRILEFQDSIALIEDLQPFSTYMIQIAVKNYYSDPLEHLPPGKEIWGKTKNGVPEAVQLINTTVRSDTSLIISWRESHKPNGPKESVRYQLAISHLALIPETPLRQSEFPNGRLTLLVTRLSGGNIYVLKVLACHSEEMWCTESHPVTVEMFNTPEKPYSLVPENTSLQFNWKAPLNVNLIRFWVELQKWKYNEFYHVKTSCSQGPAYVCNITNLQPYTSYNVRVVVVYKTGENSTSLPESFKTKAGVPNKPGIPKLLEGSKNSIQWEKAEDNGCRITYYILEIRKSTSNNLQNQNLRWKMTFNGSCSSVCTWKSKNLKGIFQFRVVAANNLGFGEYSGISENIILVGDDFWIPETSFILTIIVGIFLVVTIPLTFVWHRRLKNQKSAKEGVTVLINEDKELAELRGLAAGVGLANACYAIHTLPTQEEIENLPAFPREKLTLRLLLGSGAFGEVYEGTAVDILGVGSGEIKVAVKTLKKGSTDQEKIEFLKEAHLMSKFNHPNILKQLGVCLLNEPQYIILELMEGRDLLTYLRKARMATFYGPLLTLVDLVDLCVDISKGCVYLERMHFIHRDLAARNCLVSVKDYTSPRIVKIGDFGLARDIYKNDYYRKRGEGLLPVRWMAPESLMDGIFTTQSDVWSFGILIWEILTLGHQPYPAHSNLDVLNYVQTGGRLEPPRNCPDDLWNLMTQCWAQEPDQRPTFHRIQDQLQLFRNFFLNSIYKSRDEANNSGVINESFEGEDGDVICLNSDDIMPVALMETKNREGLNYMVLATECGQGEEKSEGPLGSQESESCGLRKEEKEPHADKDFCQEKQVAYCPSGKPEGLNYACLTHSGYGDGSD
Sequence of Ba/F3 cells containing Ros1 with a mutation at the gatekeeper residue (L2026M) (P08922 whole entry L2026M, form open): as the sequence (P08922 whole entry G2032R, form open) above, with L2026M, R2032G counted along it

| SMILES | T/C (%) ([1]; 12.5 mg/kg BID) | T/C (%) ([1]; 25 mg/kg BID) | Ba/3 Ros1 G2032R (-IL-3) pIC50 [2] | CC50 [3] | Ba/F3 Ros1 L2026M (-IL-3) pIC50 [4] | T/C (%) ([5]; 6.25 mg/kg BID) | T/C (%) ([5]; 12.5 mg/kg QD) | T/C (%) ([5]; 25 mg/kg QD) | other results |
| --- | --- | --- | --- | --- | --- | --- | --- | --- | --- |
| CC(C)c1ccc(COc2ccc(-c3c(-c4ccncc4)nn4c3C(=O)NCC4)cc2)cc1 [Compound 1] | 43% | 7% | 7.0 | > 10 µM | 7.3 | 50% | 12% | −27% | T/C (%) ([1]; 6.25 mg/kg BID): 79%; T/C (%) ([5]; 1.56 mg/kg QD): 88%; T/C (%) ([5]; 3.125 mg/kg QD): 75%; T/C (%) ([5]; 6.25 mg/kg QD): 35%; T/C (%) ([5]; 12.5 mg/kg BID): 20%; T/C (%) ([5]; 25 mg/kg BID): −13% |
| CC(C)c1ccc(COc2ccc(-c3c(-c4ccncc4)nn4c3C(=O)N(CCO)CC4)cc2)cc1 [Compound 2] | 89% | 55% | 7.1 | > 10 µM | 7.4 | 67% | 61% | 46% | T/C (%) ([1]; 50 mg/kg BID): 18%; T/C (%) ([1]; 100 mg/kg BID): −16%; T/C (%) ([5]; 3.125 mg/kg BID): 91%; T/C (%) ([5]; 12.5 mg/kg BID, 12.5 mg/kg): 47% and 51%; T/C (%) ([5]; 50 mg/kg QD): 20%; T/C (%) ([5]; 100 mg/kg BID): −22%; melting point: 181 °C |
